# Measured values: PubChem BioAssay (NCI)
# Several values for one entry are separate records, joined by “and”; a condition that tells them apart may be missing. Equal values may be shown once.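 Values below derive from 48-hour exposures of cells grown in 96-well plates, with endpoints linearly interpolated between the two concentrations bracketing the appropriate inhibition level. GI50: concentration for 50% inhibition of growth. Definition used: TGI = concentration required for complete inhibition of growth.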
# How the values were obtained:
# Assay in all cases: growth of human tumour cells (NCI), 48 h
# [1] = system: 786-0 renal
# [2] = system: A498 renal
# [3] = system: A549 NSCLC
# [4] = system: ACHN renal
# [5] = system: BT-549 breast
# [6] = system: CAKI-1 renal
# [7] = system: CCRF-CEM leukemia
# [8] = system: COLO 205 colon
# [9] = system: DLD-1 colon
# [10] = system: DMS 114 small cell lung
# [11] = system: DMS 273 small cell lung
# [12] = system: DU-145 prostate
# [13] = system: EKVX NSCLC
# [14] = system: HCC-2998 colon
# [15] = system: HCT-116 colon
# [16] = system: HCT-15 colon
# [17] = system: HL-60(TB) leukemia
# [18] = system: HOP-18 NSCLC
# [19] = system: HOP-62 NSCLC
# [20] = system: HOP-92 NSCLC
# [21] = system: HT29 colon
# [22] = system: IGROV1 ovarian
# [23] = system: K-562 leukemia
# [24] = system: KM12 colon
# [25] = system: KM20L2 colon
# [26] = system: LOX IMVI melanoma
# [27] = system: LXFL 529 NSCLC
# [28] = system: M14 melanoma
# [29] = system: M19-MEL melanoma
# [30] = system: MALME-3M melanoma
# [31] = system: MCF7 breast
# [32] = system: MDA-MB-231 breast
# [33] = system: MDA-MB-435
# [34] = system: MDA-N
# [35] = system: MOLT-4 leukemia
# [36] = system: NCI-H226 lung
# [37] = system: NCI-H23 lung
# [38] = system: NCI-H460 lung
# [39] = system: NCI-H522 lung
# [40] = system: NCI/ADR-RES ovarian
# [41] = system: OVCAR-3 ovarian
# [42] = system: OVCAR-4 ovarian
# [43] = system: OVCAR-5 ovarian
# [44] = system: OVCAR-8 ovarian
# [45] = system: PC-3 prostate
# [46] = system: RPMI-8226 leukemia
# [47] = system: RXF 393 renal
# [48] = system: SF-268 CNS
# [49] = system: SF-295 CNS
# [50] = system: SF-539 CNS
# [51] = system: SK-MEL-2 melanoma
# [52] = system: SK-MEL-28 melanoma
# [53] = system: SK-MEL-5 melanoma
# [54] = system: SK-OV-3 ovarian
# [55] = system: SN12C renal
# [56] = system: SNB-19 CNS
# [57] = system: SNB-78 CNS
# [58] = system: SR leukemia
# [59] = system: SW-620 colon
# [60] = system: T-47D breast
# [61] = system: TK-10 renal
# [62] = system: U251 CNS
# [63] = system: UACC-257 melanoma
# [64] = system: UACC-62 melanoma
# [65] = system: UO-31 renal
# [66] = system: XF 498 CNS
# [67] = system: SNB-75 CNS
# [68] = system: HS 578T breast
smiles,measurement,setting,value
C[C@]12CC[C@@H]3c4ccc(O)cc4CC[C@H]3[C@@H]1CC[C@@H]2OC(=O)CCC1CCCC1,TGI,[1],29.9 µM
same,TGI,[2],38.8 µM
same,TGI,[3],32.2 µM
same,TGI,[4],55500 nM
same,TGI,[5],32.7 µM
same,TGI,[6],33.2 µM
same,TGI,[7],38.4 µM
same,TGI,[8],33900 nM
same,TGI,[9],98.6 µM
same,TGI,[10],85.9 µM
same,TGI,[11],27.7 µM
same,TGI,[12],26.9 µM
same,TGI,[13],21 µM
same,TGI,[14],37800 nM
same,TGI,[15],31.1 µM
same,TGI,[16],33.8 µM
same,TGI,[17],34.8 µM
same,TGI,[18],59.6 µM
same,TGI,[19],33.9 µM
same,TGI,[20],47700 nM
same,TGI,[21],32000 nM
same,TGI,[22],33400 nM
same,TGI,[23],35.2 µM
same,TGI,[24],> 56.8 µM
same,TGI,[25],33.1 µM
same,TGI,[26],35600 nM
same,TGI,[27],32.1 µM
same,TGI,[28],43.4 µM
same,TGI,[29],67.9 µM
same,TGI,[30],55.3 µM
same,TGI,[31],31 µM
same,TGI,[32],32.2 µM
same,TGI,[33],21.7 µM
same,TGI,[34],20.2 µM
same,TGI,[35],35.2 µM
same,TGI,[36],36600 nM
same,TGI,[37],34600 nM
same,TGI,[38],36.3 µM
same,TGI,[39],32.6 µM
same,TGI,[40],32.9 µM
same,TGI,[41],30.1 µM
same,TGI,[42],32000 nM
same,TGI,[43],> 57200 nM
same,TGI,[44],31.7 µM
same,TGI,[45],31.3 µM
same,TGI,[46],38.3 µM
same,TGI,[47],28300 nM
same,TGI,[48],41100 nM
same,TGI,[49],31.8 µM
same,TGI,[50],40.5 µM
same,TGI,[51],> 56.4 µM
same,TGI,[52],34.2 µM
same,TGI,[53],33.4 µM
same,TGI,[54],38.3 µM
same,TGI,[55],31.2 µM
same,TGI,[56],31.3 µM
same,TGI,[57],> 100000 nM
same,TGI,[58],39.3 µM
same,TGI,[59],38.1 µM
same,TGI,[60],28.4 µM
same,TGI,[61],48.4 µM
same,TGI,[62],33.5 µM
same,TGI,[63],> 57.7 µM
same,TGI,[64],27.5 µM
same,TGI,[65],35300 nM
same,TGI,[66],40.9 µM
CCOC(=O)NC(=O)c1cn(-c2ccc(CCOC(=O)NCCCCCCNC(=O)OCCc3ccc(-n4c(=O)[nH]cc(C(=O)NC(=O)OCC)c4=O)cc3)cc2)c(=O)[nH]c1=O,TGI,[1],> 100 µM
same,TGI,[2],> 100 µM
same,TGI,[3],> 100 µM
same,TGI,[4],> 92700 nM
same,TGI,[6],> 100 µM
same,TGI,[7],> 100 µM
same,TGI,[8],> 100000 nM
same,TGI,[9],> 100 µM
same,TGI,[10],> 100 µM
same,TGI,[11],> 100 µM
same,TGI,[13],> 100 µM
same,TGI,[14],> 100000 nM
same,TGI,[15],> 100 µM
same,TGI,[16],> 100 µM
same,TGI,[17],> 100 µM
same,TGI,[18],> 100 µM
same,TGI,[19],72 µM
same,TGI,[20],> 100000 nM
same,TGI,[21],> 100000 nM
same,TGI,[22],> 100000 nM
same,TGI,[23],> 100 µM
same,TGI,[24],> 100 µM
same,TGI,[25],> 100 µM
same,TGI,[26],> 100000 nM
same,TGI,[27],69.7 µM
same,TGI,[28],> 100 µM
same,TGI,[29],> 94.8 µM
same,TGI,[30],> 91.9 µM
same,TGI,[35],> 100 µM
same,TGI,[37],> 100000 nM
same,TGI,[38],> 76.8 µM
same,TGI,[39],68.6 µM
same,TGI,[41],> 100 µM
same,TGI,[42],> 100000 nM
same,TGI,[43],> 100000 nM
same,TGI,[44],> 100 µM
same,TGI,[46],> 100 µM
same,TGI,[47],> 100000 nM
same,TGI,[48],> 84800 nM
same,TGI,[49],> 82.4 µM
same,TGI,[50],54.5 µM
same,TGI,[51],> 100 µM
same,TGI,[52],> 100 µM
same,TGI,[53],> 100 µM
same,TGI,[54],> 89.8 µM
same,TGI,[55],> 100 µM
same,TGI,[56],51.4 µM
same,TGI,[67],67.3 µM
same,TGI,[57],98800 nM
same,TGI,[58],> 100 µM
same,TGI,[59],> 100 µM
same,TGI,[61],97.5 µM
same,TGI,[62],> 74.9 µM
same,TGI,[63],> 100 µM
same,TGI,[64],60.6 µM
same,TGI,[65],> 93900 nM
same,TGI,[66],> 48.9 µM
O=[N+]([O-])c1cccc2nc3ccccc3c(NCCO)c12,GI50,[1],0.265 nM
same,TGI,[1],0.0021 µM
same,GI50,[2],9.34 nM
same,TGI,[2],0.0367 µM
same,GI50,[3],0.154 nM
same,TGI,[3],0.00146 µM
same,GI50,[4],0.189 nM
same,TGI,[4],4.05 nM and 2.47 nM
same,GI50,[5],0.108 nM
same,TGI,[5],0.000295 µM
same,GI50,[6],0.484 nM
same,TGI,[6],0.00293 µM
same,GI50,[7],3.79 nM
same,TGI,[7],> 0.1 µM
same,GI50,[8],0.181 nM
same,TGI,[8],6.4 nM and 0.73 nM
same,TGI,[9],0.00308 µM
same,TGI,[10],0.0142 µM
same,TGI,[11],0.0481 µM
same,GI50,[12],0.0482 nM
same,TGI,[12],0.00195 µM
same,GI50,[13],5.47 nM
same,TGI,[13],0.00373 µM
same,GI50,[14],1.46 nM
same,TGI,[14],3.67 nM and 3.38 nM
same,GI50,[15],0.0418 nM
same,TGI,[15],0.00047 µM
same,GI50,[16],0.293 nM
same,TGI,[16],0.00425 µM
same,GI50,[17],1.18 nM
same,TGI,[17],> 0.1 µM
same,TGI,[18],> 0.1 µM
same,TGI,[19],0.00205 µM
same,GI50,[20],1.22 nM
same,TGI,[20],4.61 nM and 5.48 nM
same,GI50,[68],0.298 nM
same,TGI,[68],0.802 nM
same,GI50,[21],1.82 nM
same,TGI,[21],6.86 nM and 3.46 nM
same,GI50,[22],11.8 nM
same,TGI,[22],13.9 nM and 72.4 nM
same,GI50,[23],1.26 nM
same,GI50,[24],1.1 nM
same,TGI,[24],0.0129 µM
same,TGI,[25],0.00357 µM
same,TGI,[26],11.9 nM and 16.9 nM
same,TGI,[27],0.0157 µM
same,TGI,[28],0.000799 µM
same,TGI,[29],0.00848 µM
same,GI50,[30],0.525 nM
same,TGI,[30],0.0017 µM
same,GI50,[31],0.113 nM
same,TGI,[31],0.000471 µM
same,GI50,[32],0.118 nM
same,GI50,[33],0.0714 nM
same,GI50,[34],0.0322 nM
same,GI50,[35],1.34 nM
same,TGI,[35],> 0.1 µM
same,GI50,[36],3.22 nM
same,TGI,[36],9.82 nM and 19.8 nM
same,GI50,[37],0.464 nM
same,TGI,[37],5.23 nM and 1.92 nM
same,GI50,[38],0.0272 nM
same,GI50,[39],0.527 nM
same,TGI,[39],0.00152 µM
same,GI50,[41],2.87 nM
same,TGI,[41],0.00178 µM
same,TGI,[42],2.93 nM and 26.7 nM
same,GI50,[43],0.703 nM
same,TGI,[43],9.29 nM and 3.07 nM
same,GI50,[44],1.21 nM
same,TGI,[44],0.0192 µM
same,GI50,[45],0.136 nM
same,TGI,[45],0.000414 µM
same,GI50,[46],0.0396 nM
same,GI50,[47],0.14 nM
same,TGI,[47],3.95 nM and 0.815 nM
same,GI50,[48],0.25 nM
same,TGI,[48],3.77 nM and 10.7 nM
same,GI50,[49],0.952 nM
same,TGI,[49],0.0137 µM
same,GI50,[50],0.647 nM
same,TGI,[50],0.00214 µM
same,GI50,[51],0.338 nM
same,TGI,[51],0.000857 µM
same,GI50,[52],0.707 nM
same,GI50,[53],0.279 nM
same,TGI,[53],0.00112 µM
same,GI50,[54],4.69 nM
same,GI50,[55],0.299 nM
same,TGI,[55],0.00232 µM
same,GI50,[56],1.2 nM
same,TGI,[56],0.0878 µM
same,TGI,[67],0.00501 µM
same,TGI,[57],50.4 nM and 12 nM
same,GI50,[58],1.39 nM
same,TGI,[58],0.00731 µM
same,GI50,[59],0.0593 nM
same,TGI,[59],0.0014 µM
same,TGI,[60],0.0048 µM
same,GI50,[61],0.594 nM
same,TGI,[61],0.00935 µM and 0.00274 µM
same,GI50,[62],0.4 nM
same,TGI,[62],0.00518 µM
same,GI50,[63],0.999 nM
same,TGI,[63],0.00384 µM
same,GI50,[64],0.705 nM
same,GI50,[65],0.336 nM
same,TGI,[65],5.76 nM and 1.73 nM
same,TGI,[66],0.00437 µM
